Reference: US7060712B2, “Crystalline form of aryl aniline β2 adrenergic receptor agonist” (Theravance, Inc., priority 2003, dated 2006)

Assay: Solid state stability testing on storage
Assay type: physicochemical
Description: Samples (20 and 80 mg each) of the Form A material produced by the process of Example 7 were stored at 25° C. and 60% relative humidity and at 40° C. and 75% relative humidity in open containers and in closed containers.
X-ray powder diffraction patterns were obtained with a Shimadzu 6000 diffractometer using Cu Kα (40.0 kV, 35.0 mA) radiation. The analysis was performed with the goniometer running in continuous-scan mode of 2°/min with a step size of 0.020 over a range of 4 to 45°. Samples were prepared on glass specimen holders as a thin layer of powdered material. The instruments was calibrated to a silicon metal standard.
Differential scanning calorimetry traces were obtained with a TA instruments model DSCQ10. Samples were placed in sealed aluminum pans for analysis with an empty pan serving as the reference. Samples were equilibrated at 30° C. and heated at 5° C. per minute to a temperature of 300° C. The instrument was calibrated with an indium standard.
Thermogravimetric analysis was conducted using a TA instruments model Q50. Samples were weighed in aluminum pans and heated from 30° C. to 300° C. at a rate of 5° C./min.
HPLC analysis was performed using reverse phase conditions and a gradient of 2% to 90% acetonitrile over 6 minutes. Solvents contain 0.1% trifluoroacetic acid. Column: Zorbax 2.1×50 mm, flow rate 0.5 mL/min, observed wavelength 214 nm.

[1] = solid stored four weeks at 25° C. and 60% relative humidity in closed containers

For COc1ccc(Nc2ccc(CCNC[C@H](O)c3ccc(O)c4[nH]c(=O)ccc34)cc2)cc1-c1ccccc1.Cl [Form A, N-{2-[4-(3-phenyl-4-methoxyphenyl)aminophenyl]ethyl}-(R)-2-hydroxy-2-(8-hydroxy-2(1H)-quinolinon-5-yl)ethylamine monohydrochloride water/isopropanol solvate], which “stability upon storage (HPLC degradant peaks; DSC, TGA and XRPD traces)” value (four weeks at 25° C. and 60% humidity in closed containers) is on record?
The value was “stable”.

And the “changes in analysis by DSC and TGA” value [1]?
The value was “no detectable differences”.

And the “chemical degradation, analysis by HPLC” value [1]?
Its value is “no detectable chemical degradation”.

What about the “solvent content on storage in open containers” value (solid stored in open containers over four weeks (25° C./60% RH and 40° C./75% RH)) of the same molecule?
The value was “loss of isopropanol”.
